The values below come from US20260285801A1, “LIPID NANOPARTICLE FOR TARGETED DELIVERY OF THERAPEUTIC PAYLOADS” (Trustees of Tufts College, priority 2023, published 2026).

The nature of series [1]: LNP size and polydispersity index by dynamic light scattering (Zetasizer Nano ZS). It counts as physicochemical. The settings on record: LNP with mRNA payload formulated with the lipid; active lipid/Cholesterol/DOPC/DMG-PEG 16.8/4.0/2.0/1.0; Lipids:mRNA 25:1; PBS pH 7.4, 25° C. How it is done: (§1) RNA working solutions (0.134 mg/ml) were prepared in 25 mM sodium acetate buffer using DNase/RNase-free distilled water. Lipid stock solutions (10 mg/mL) were freshly prepared with active lipids or helper lipids (e.g., cholesterol, DOPC or DSPC, or ALC-0159) in ethanol. Reagents were mixed by vortexing and sonicating until the lipids were completely dissolved. A lipid mixture was first prepared by combining the active lipids (e.g., ionizable lipids of the present disclosure) and helper lipids into one vial and mixing thoroughly. Lipid nanoparticles were then formed by mixing the RNA working solution (0.134 mg/ml) and the lipid mixture at 3:1 volume ratio, either manually (for smaller scale) or by Precision Igniter microfluidic device. The formulation solution was transferred into a 300 kDa MWCO Float-A-Lyzer G2 Dialysis Device and dialyzed against at least 1000-folds volume of 50 mM Tris buffer overnight at 4° C. The LNP solution was sterilized with a 0.22 μm filter.
(§2) For LNP characterization, size and polydispersity index (PDI) were determined by dynamic light scattering using a Zetasizer Nano ZS. 10 μL of LNP suspension was transferred to a low-volume cuvette containing 900 μL of Ca^2+ and Mg^2+ free PBS at pH 7.4. Refractive index was set to […] and temperature was set to 25° C. Encapsulation efficiency (EE %) was measured using a fluorescence plate-based assay employing the Ribogreen reagent (Invitrogen) as per PNI Ribogreen assay protocol 16. This assay measures the quantity of mRNA in samples with intact LNPs to determine the quantity of unencapsulated RNA as well as in LNP samples disrupted by triton X-100 to measure the total RNA. EE % is calculated as the difference between the total RNA and the unencapsulated RNA divided by the total RNA.

Series [2] in a line: Encapsulation efficiency and mRNA quantity by Ribogreen fluorescence plate assay. It counts as physicochemical. The settings on record: LNP with mRNA payload formulated with the lipid, 16.8/4.0/2.0/1.0, Lipids:mRNA 25:1; for EE %: (total RNA - unencapsulated RNA)/total RNA. How it is done:
as §1, §2

For `CCCCCCCCC(CCC)OC(=O)OCCOC(=O)CCN(CCCN(C)CCCN(CCC(=O)OCCOC(=O)OC(CCC)CCCCCCCC)CCC(=O)OCCOC(=O)OC(CCC)CCCCCCCC)CCC(=O)OCCOC(=O)OC(CCC)CCCCCCCC` (stereo not drawn) [Lipid L0637], in series [1], the PDI was 0.34 and the “Size (nm)” value is on record as 186.1 nm. Besides, in series [2], the “[mRNA] Ug/ml” value is given as 66.8 Ug/ml and the EE % came to 94%.

With `CCCCCCCCCC(CC)OC(=O)OCCOC(=O)CCN(CCCN(C)CCCN(CCC(=O)OCCOC(=O)OC(CC)CCCCCCCCC)CCC(=O)OCCOC(=O)OC(CC)CCCCCCCCC)CCC(=O)OCCOC(=O)OC(CC)CCCCCCCCC` (stereo not drawn) [Lipid L0660], in series [1], the PDI came to 0.11 and the “Size (nm)” value was found to be 122.2 nm. Moreover, in series [2], the “[mRNA] Ug/ml” value came to 71 Ug/ml and the EE % amounted to 97%.

For the molecule `CC(C)CCCCCCCCSSCCOC(=O)CCN(CCCN(C)CCCN(CCC(=O)OCCSSCCCCCCCCC(C)C)CCC(=O)OCCSSCCCCCCCCC(C)C)CCC(=O)OCCSSCCCCCCCCC(C)C` [Lipid L0814], in series [1], the PDI is 0.093 and the “Size (nm)” value is on record as 178.8 nm. In series [2], the “[mRNA] Ug/ml” value is recorded as 90.2 Ug/ml and the EE % amounted to 70%.

On to `CC(C)CCCCCCSSCCOC(=O)CCN(CCCn1ccnc1)CCC(=O)OCCSSCCCCCCC(C)C` [Lipid L0645], for which, in series [1], the PDI is listed as 0.106 and the “Size (nm)” value is reported as 161 nm. In addition, in series [2], the “[mRNA] Ug/ml” value turned out to be 90 Ug/ml and the EE % came to 74.2%.

As to `CCCCCCC(CCCC)COC(=O)OCCOC(=O)CCN(CCCN(CCCNC(=O)OC(C)(C)C)CCCN(CCC(=O)OCCOC(=O)OCC(CCCC)CCCCCC)CCC(=O)OCCOC(=O)OCC(CCCC)CCCCCC)CCC(=O)OCCOC(=O)OCC(CCCC)CCCCCC` (stereo not drawn) [Lipid L0668], in series [1], the PDI amounted to 0.11 and the “Size (nm)” value was 134.7 nm. Besides, in series [2], the “[mRNA] Ug/ml” value is recorded as 67.1 Ug/ml and the EE % is 97%.

On to `CCCCC/C=C\CCCOC(=O)CCN(CCCN(C)CCCN(CCC(=O)OCCC/C=C\CCCCC)CCC(=O)OCCC/C=C\CCCCC)CCC(=O)OCCC/C=C\CCCCC` [Lipid L0824], for which, in series [1], the PDI is reported as 0.12 and the “Size (nm)” value came to 95.98 nm. For the same molecule, in series [2], the “[mRNA] Ug/ml” value was determined as 93.4 Ug/ml and the EE % stood at 68%.

`CCCCCCCCC(CCC)OC(=O)OCCOC(=O)CCN(CCC(=O)OCCOC(=O)OC(CCC)CCCCCCCC)CCN(C)CCN(CCC(=O)OCCOC(=O)OC(CCC)CCCCCCCC)CCC(=O)OCCOC(=O)OC(CCC)CCCCCCCC` (stereo not drawn) [Lipid L0638]: in series [1], the PDI was 0.22 and the “Size (nm)” value is given as 121.5 nm. In series [2], the “[mRNA] Ug/ml” value was 65.1 Ug/ml and the EE % was found to be 95.7%.

For `CCC(C)CCCCCOC(=O)CCN(CCC(=O)OCCCCCC(C)CC)CCN(C)CCN(CCC(=O)OCCCCCC(C)CC)CCC(=O)OCCCCCC(C)CC` (stereo not drawn) [Lipid L0631], in series [1], the PDI is recorded as 0.105 and the “Size (nm)” value turned out to be 122.2 nm. In series [2], the “[mRNA] Ug/ml” value was 88.88 Ug/ml and the EE % was found to be 45.59%.

On to `CCCCCCC(CCCC)CNC(=O)SCCOC(=O)CCN(CCCN(C)CCCN(CCC(=O)OCCSC(=O)NCC(CCCC)CCCCCC)CCC(=O)OCCSC(=O)NCC(CCCC)CCCCCC)CCC(=O)OCCSC(=O)NCC(CCCC)CCCCCC` (stereo not drawn) [Lipid L0550], for which, in series [1], the PDI was found to be 0.14 and the “Size (nm)” value turned out to be 121 nm. For the same molecule, in series [2], the “[mRNA] Ug/ml” value was 61.1 Ug/ml and the EE % is on record as 84.3%.

With `CCCCCCC(CCCC)COC(=O)OCCOC(=O)CCN(CCCN(CCCO)CCCN(CCC(=O)OCCOC(=O)OCC(CCCC)CCCCCC)CCC(=O)OCCOC(=O)OCC(CCCC)CCCCCC)CCC(=O)OCCOC(=O)OCC(CCCC)CCCCCC` (stereo not drawn) [Lipid L0666], in series [1], the PDI amounted to 0.26 and the “Size (nm)” value worked out at 246.5 nm. Further, in series [2], the “[mRNA] Ug/ml” value was 71.9 Ug/ml and the EE % amounted to 96.1%.

As for `CCCCCCC(CCCC)COC(=O)OCCOC(=O)CCN(CCCN(C)CCCN(CCC(=O)OCCOC(=O)OCC(CCCC)CCCCCC)CCC(=O)OCCOC(=O)OCC(CCCC)CCCCCC)CCC(=O)OCCOC(=O)OCC(CCCC)CCCCCC` (stereo not drawn) [Lipid L0088], in series [1], the PDI was determined as 0.087 and the “Size (nm)” value is reported as 153.9 nm. Besides, in series [2], the “[mRNA] Ug/ml” value was found to be 69.7 Ug/ml and the EE % is recorded as 85.2%.

As to `CCCCCCCCCC(CC)OC(=O)OCCOC(=O)CCN(CCCN(C)CCCN(CCC(=O)OCCOC(=O)OC(CC)CCCCCCCCC)CCC(=O)OCCOC(=O)OC(CC)CCCCCCCCC)CCC(=O)OCCOC(=O)OC(CC)CCCCCCCCC` (stereo not drawn) [Lipid L0659], in series [1], the PDI stood at 0.1 and the “Size (nm)” value turned out to be 104.3 nm. In addition, in series [2], the “[mRNA] Ug/ml” value is recorded as 69.6 Ug/ml and the EE % came to 96.2%.

Turning to `CCCC/C=C\CCOC(=O)CCN(CCCN(C)CCCN(CCC(=O)OCC/C=C\CCCC)CCC(=O)OCC/C=C\CCCC)CCC(=O)OCC/C=C\CCCC` [Lipid L0826], in series [1], the PDI came to 0.082 and the “Size (nm)” value is on record as 141 nm. Moreover, in series [2], the “[mRNA] Ug/ml” value amounted to 95.2 Ug/ml and the EE % is 39%.

In the case of `CCCCCCCC(CCCCCC)OC(=O)OCCOC(=O)CCN(CCCN(C)CCCN(CCC(=O)OCCOC(=O)OC(CCCCCC)CCCCCCC)CCC(=O)OCCOC(=O)OC(CCCCCC)CCCCCCC)CCC(=O)OCCOC(=O)OC(CCCCCC)CCCCCCC` (stereo not drawn) [Lipid L0654], in series [1], the PDI stood at 0.1 and the “Size (nm)” value is 119.4 nm. Besides, in series [2], the “[mRNA] Ug/ml” value worked out at 65.6 Ug/ml and the EE % is recorded as 90.6%.

As to `CCC(C)CCCCCOC(=O)CCN(CCCN(C)CCCN(CCC(=O)OCCCCCC(C)CC)CCC(=O)OCCCCCC(C)CC)CCC(=O)OCCCCCC(C)CC` (stereo not drawn) [Lipid L0630], in series [1], the PDI was found to be 0.102 and the “Size (nm)” value is 121.9 nm. Further, in series [2], the “[mRNA] Ug/ml” value is 74.99 Ug/ml and the EE % was determined as 60.74%.

For the molecule `CC(C)CCCCCCCCSSCCOC(=O)CCN(CCCN(C)CCCN(CCC(=O)OCCSSCCCCCCCCC(C)C)CCC(=O)OCCSSCCCCCCCCC(C)C)CCC(=O)OCCSSCCCCCCCCC(C)C` [Lipid L0813], in series [1], the PDI is 0.107 and the “Size (nm)” value was 183 nm. Moreover, in series [2], the “[mRNA] Ug/ml” value was found to be 96.7 Ug/ml and the EE % turned out to be 84%.

`CC/C=C\CCCC[Se]CCOC(=O)CCN(CCCN(C)CCCN(CCC(=O)OCC[Se]CCCC/C=C\CC)CCC(=O)OCC[Se]CCCC/C=C\CC)CCC(=O)OCC[Se]CCCC/C=C\CC` [Lipid L0825]: in series [1], the PDI was determined as 0.099 and the “Size (nm)” value is recorded as 118.7 nm. Further, in series [2], the “[mRNA] Ug/ml” value was found to be 91.2 Ug/ml and the EE % was determined as 62%.

Regarding `CC/C=C\CCCCOC(=O)CCN(CCCN(C)CCCN(CCC(=O)OCCOC(=O)OCC(CCCC)CCCCCC)CCC(=O)OCCOC(=O)OCC(CCCC)CCCCCC)CCC(=O)OCCOC(=O)OCC(CCCC)CCCCCC` (stereo not drawn) [Lipid L0830], in series [1], the PDI came out at 0.105 and the “Size (nm)” value stood at 125.1 nm. Moreover, in series [2], the “[mRNA] Ug/ml” value was 91 Ug/ml and the EE % is on record as 48%.

Consider `CC(C)CCCCCCSSCCOC(=O)CCN(CCCN(C)CCCN(CCC(=O)OCCSSCCCCCCC(C)C)CCC(=O)OCCSSCCCCCCC(C)C)CCC(=O)OCCSSCCCCCCC(C)C` [Lipid L0642], for which, in series [1], the PDI is recorded as 0.124 and the “Size (nm)” value was 186.4 nm. In addition, in series [2], the “[mRNA] Ug/ml” value stood at 99.9 Ug/ml and the EE % came to 84.5%.

As to `CCCCCCC(CCCC)COC(=O)OCCOC(=O)CCN(CCCN(CCCCO)CCCN(CCC(=O)OCCOC(=O)OCC(CCCC)CCCCCC)CCC(=O)OCCOC(=O)OCC(CCCC)CCCCCC)CCC(=O)OCCOC(=O)OCC(CCCC)CCCCCC` (stereo not drawn) [Lipid L0667], in series [1], the PDI is 0.19 and the “Size (nm)” value was found to be 101.7 nm. In series [2], the “[mRNA] Ug/ml” value was determined as 77.3 Ug/ml and the EE % came out at 97%.

Turning to `CCC1CC1CCCCSSCCOC(=O)CCN(CCCN(C)CCCN(CCC(=O)OCCSSCCCCC1CC1CC)CCC(=O)OCCSSCCCCC1CC1CC)CCC(=O)OCCSSCCCCC1CC1CC` (stereo not drawn) [Lipid L0586], in series [1], the PDI is 0.079 and the “Size (nm)” value is 151.8 nm. In addition, in series [2], the “[mRNA] Ug/ml” value came out at 78 Ug/ml and the EE % was 21.2%.

In the case of `CCCCCCC(CCCC)COC(=O)OCCOC(=O)CCN(CCCN(CCCN(CCC(=O)OCCOC(=O)OCC(CCCC)CCCCCC)CCC(=O)OCCOC(=O)OCC(CCCC)CCCCCC)CCCN1CCN(C)CC1)CCC(=O)OCCOC(=O)OCC(CCCC)CCCCCC` (stereo not drawn) [Lipid L0674], in series [1], the PDI amounted to 0.22 and the “Size (nm)” value worked out at 124.4 nm. For the same molecule, in series [2], the “[mRNA] Ug/ml” value is reported as 71.22 Ug/ml and the EE % is 98.92%.

Turning to `CCCCCCC(CCCC)CNC(=O)NCCNC(=O)CCN(CCCN(C)CCCN(CCC(=O)NCCNC(=O)NCC(CCCC)CCCCCC)CCC(=O)NCCNC(=O)NCC(CCCC)CCCCCC)CCC(=O)NCCNC(=O)NCC(CCCC)CCCCCC` (stereo not drawn) [Lipid L0775], in series [1], the PDI is listed as 0.863 and the “Size (nm)” value is recorded as 5911 nm.
